Source: BindingDB's records for doi:10.1074/jbc.M113.537704 (Icahn School Of Medicine At Mount Sinai, 2014)

How the values were obtained:
[1] = target: EEF1AKMT4-ECE2 readthrough transcript protein (Homo sapiens, UniProt P0DPD8); assay: Enzyme Activity Assay; details: pH 5.5
Protocol: (§1) Recombinant ECE2 (32.5 ng) with a specific activity of 12 pmol/min/μg protein was generated as described previously. Secreted soluble recombinant ECE1 (30 ng) with a specific activity of 750 pmol/min/μg protein was generated and purified using a protocol similar to that used for ECE2. Solubilized midbrain membranes (10 μg) from wildtype or ECE2 knock-out mice were prepared as described. Enzymatic activity, in the absence or presence of the ECE2 inhibitor S136492 or the ECE1 inhibitor SM19712, was assayed using the synthetic quenched fluorescent substrate McaBk2 (10 μM) at 37 °C with either 0.2 M sodium acetate buffer, pH 5.5, or 50 mM Tris-Cl buffer, pH 7.4, as described previously [Gagnidze et al., J. Med. Chem., 51:3378-3387; Ouimet et al., J. Biol. Chem., 285:34390-34400].

[2] = target: T1, Endothelin-converting enzyme 1 (Homo sapiens, UniProt P42892); assay: Enzyme Activity Assay
T1 sequence (P42892 whole entry): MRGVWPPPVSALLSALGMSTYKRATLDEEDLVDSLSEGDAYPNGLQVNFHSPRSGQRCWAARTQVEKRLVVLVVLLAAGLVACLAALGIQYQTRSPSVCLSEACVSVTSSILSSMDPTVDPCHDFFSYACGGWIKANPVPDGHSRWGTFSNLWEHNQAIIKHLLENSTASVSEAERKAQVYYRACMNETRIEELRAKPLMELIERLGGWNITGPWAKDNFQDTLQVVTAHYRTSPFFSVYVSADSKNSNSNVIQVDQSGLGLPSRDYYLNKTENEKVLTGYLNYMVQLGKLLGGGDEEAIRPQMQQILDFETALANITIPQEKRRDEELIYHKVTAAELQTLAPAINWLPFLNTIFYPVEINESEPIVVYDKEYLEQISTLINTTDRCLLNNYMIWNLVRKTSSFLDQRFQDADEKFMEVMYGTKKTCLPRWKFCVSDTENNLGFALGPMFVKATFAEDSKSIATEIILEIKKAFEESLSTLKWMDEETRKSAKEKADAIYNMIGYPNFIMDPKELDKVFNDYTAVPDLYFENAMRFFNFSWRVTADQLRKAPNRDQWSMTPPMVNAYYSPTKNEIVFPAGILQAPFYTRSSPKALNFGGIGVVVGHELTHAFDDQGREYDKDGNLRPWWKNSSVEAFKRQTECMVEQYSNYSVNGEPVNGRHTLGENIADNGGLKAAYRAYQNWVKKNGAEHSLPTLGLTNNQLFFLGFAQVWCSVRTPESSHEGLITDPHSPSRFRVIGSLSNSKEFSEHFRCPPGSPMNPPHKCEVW
Protocol: as §1

Sequence of EEF1AKMT4-ECE2 readthrough transcript protein (P0DPD8 whole entry): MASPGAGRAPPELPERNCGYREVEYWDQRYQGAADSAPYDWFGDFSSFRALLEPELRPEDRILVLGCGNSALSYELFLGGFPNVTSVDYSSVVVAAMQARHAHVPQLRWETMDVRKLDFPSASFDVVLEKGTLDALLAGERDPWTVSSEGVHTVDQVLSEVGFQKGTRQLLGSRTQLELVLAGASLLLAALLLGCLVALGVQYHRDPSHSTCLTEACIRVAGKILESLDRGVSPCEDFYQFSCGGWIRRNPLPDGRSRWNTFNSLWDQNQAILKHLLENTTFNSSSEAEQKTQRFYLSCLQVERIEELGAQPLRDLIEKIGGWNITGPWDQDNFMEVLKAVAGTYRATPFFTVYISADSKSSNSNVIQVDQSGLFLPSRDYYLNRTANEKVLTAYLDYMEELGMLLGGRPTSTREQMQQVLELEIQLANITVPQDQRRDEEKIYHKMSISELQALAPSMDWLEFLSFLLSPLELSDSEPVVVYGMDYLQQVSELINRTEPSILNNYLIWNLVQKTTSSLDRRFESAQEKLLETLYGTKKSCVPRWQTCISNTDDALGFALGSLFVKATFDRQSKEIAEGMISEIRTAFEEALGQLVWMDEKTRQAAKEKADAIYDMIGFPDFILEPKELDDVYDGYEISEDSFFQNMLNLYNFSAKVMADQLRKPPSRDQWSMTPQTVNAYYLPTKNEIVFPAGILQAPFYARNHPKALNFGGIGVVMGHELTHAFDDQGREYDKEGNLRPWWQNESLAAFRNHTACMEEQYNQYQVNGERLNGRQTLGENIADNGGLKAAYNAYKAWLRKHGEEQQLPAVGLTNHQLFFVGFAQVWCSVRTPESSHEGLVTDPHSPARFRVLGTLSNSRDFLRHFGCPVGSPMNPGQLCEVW

Q: Which IC50 [1] does the source give for `Oc1ccccc1/C=C\c1ccc2ccccc2n1` [2-(2-(quinolin-2-yl)vinyl)phenol] here?
A: The IC50 was 1600 nM.

Q: What about the IC50 ([2]; pH 5.5) of the same compound?
A: The IC50 was over 100000 nM.

Q: What about the IC50 ([2]; pH 7.4) of the same compound?
A: The IC50 was over 100000 nM.

Q: Which IC50 [1] does the source give for `Cc1[nH]nc(NC(=O)NS(=O)(=O)c2ccc(Cl)cc2)c1C#N` [SM19712] here?
A: Its IC50 is 5 nM.

Q: What about the IC50 ([2]; pH 5.5) of the same compound?
A: The IC50 was over 100000 nM.

Q: What about the IC50 ([2]; pH 7.4) of the same compound?
A: The IC50 was 1100 nM.
